The target of experiment [1] is T1, mMC4R (Mus musculus, UniProt P56450). Nature of the experiment: Schild analysis of antagonist activity at mMC4R. The note with it: for mMC4R Antagonist pA2: Schild analysis.
Experimental: The antagonist activity may also be reported as a Ki value, which is the inverse Log of pA2. […] Compounds were dissolved in DMSO at a stock concentration of 10^−2 M and stored at −20° C. until assayed. HEK-293 cells stably expressing the selected melanocortin receptors were transiently transfected with 4 μg of CRE/β-galactosidase reporter gene. Briefly, 5000-15000 post transfection cells were plated into collagen treated 96-well plates (Nunc) and incubated overnight. […] The assay media was aspirated, and 50 μL of lysis buffer (250 mM Tris-HCl pH=8.0 and 0.1% Triton X-100) was added. The plates were stored at −80° C. overnight. The plates containing the cell lysates were thawed the following day. Aliquots of 10 μL were taken from each well and transferred to another 96-well plate for relative protein determination. To the cell lysate plates, 40 μL of phosphate-buffered saline with 0.5% BSA was added to each well. Subsequently, 150 μL of substrate buffer (60 mM sodium phosphate, 1 mM MgCl2, 10 mM KCl, 5 mM β-mercaptoethanol, 2 mg/mL ONPG) was added to each well and the plates were incubated at 37° C. The sample absorbance, OD405, was measured using a 96-well plate reader (Molecular Devices). The relative protein was determined by adding 200 μL of 1:5 dilution BioRad G250 protein dye:water to the 10 μL of cell lysate sample taken previously, and the OD595 was measured on a 96-well plate reader (Molecular Devices). Data points were normalized to forskolin and the relative protein content were used as positive controls. The EC50 values represent the mean of three or more independent experiments. The EC50 estimates, and their associated standard errors of the mean, were determined by fitting the data to a nonlinear least-squares analysis using the PRISM program (v4.0, GraphPad Inc.).
The reported values are on a log scale. In order to put them into perspective, their approximate binding disassociation constants, Ki values, can be calculated through the following relationship pA2=−Log10 (Ki).
The target in a further experiment is mMC1R (Mus musculus, UniProt Q01727). The experiment is described as follows: cAMP based functional bioassay (CRE/β-galactosidase reporter), agonist activity at mMC1R.
In a further experiment the target is mMC5R (Mus musculus, UniProt P41149). Nature of the experiment: cAMP based functional bioassay (CRE/β-galactosidase reporter), agonist activity at mMC5R.
Chain of mMC5R (P41149 whole entry): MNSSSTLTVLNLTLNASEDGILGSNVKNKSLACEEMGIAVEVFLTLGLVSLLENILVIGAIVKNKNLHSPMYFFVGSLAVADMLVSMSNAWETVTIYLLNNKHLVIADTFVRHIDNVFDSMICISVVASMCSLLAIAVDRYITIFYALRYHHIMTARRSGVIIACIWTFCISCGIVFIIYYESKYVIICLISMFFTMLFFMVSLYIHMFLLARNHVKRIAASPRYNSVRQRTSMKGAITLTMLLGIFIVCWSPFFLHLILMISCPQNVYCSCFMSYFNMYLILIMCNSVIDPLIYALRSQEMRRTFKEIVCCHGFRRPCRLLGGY
A further experiment deals with mMC3R (Mus musculus, UniProt P33033). Nature of the experiment: cAMP based functional bioassay (CRE/β-galactosidase reporter), agonist activity at mMC3R.
Chain of mMC3R (P33033 whole entry): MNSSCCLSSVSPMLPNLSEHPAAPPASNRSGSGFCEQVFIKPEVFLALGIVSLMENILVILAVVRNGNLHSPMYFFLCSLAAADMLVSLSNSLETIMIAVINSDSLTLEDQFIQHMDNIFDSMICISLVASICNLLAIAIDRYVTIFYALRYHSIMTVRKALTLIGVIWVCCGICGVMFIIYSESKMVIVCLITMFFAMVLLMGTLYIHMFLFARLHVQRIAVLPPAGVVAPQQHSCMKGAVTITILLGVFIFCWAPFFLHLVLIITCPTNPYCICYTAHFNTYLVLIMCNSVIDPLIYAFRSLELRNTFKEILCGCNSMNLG
The target in experiment [2] is T1, mMC4R. The experiment is described as follows: cAMP based functional bioassay (CRE/β-galactosidase reporter), agonist activity at mMC4R. The arrangement: Emax: dose or concentration left out as unconfirmed. The settings on record: for Emax: read-out: maximal activation at the melanocortin-4 receptor; for mMC4R Activity @ 10 μM (class) / mMC4R Activity @ 10 μM (relative activity, percent): reported where receptor not activated to full activity.
Experimental: (§1) The compounds were evaluated using a whole cell assay.
(§2) Compounds were dissolved in DMSO at a stock concentration of 10^−2 M and stored at −20° C. until assayed. HEK-293 cells stably expressing the selected melanocortin receptors were transiently transfected with 4 μg of CRE/β-galactosidase reporter gene. Briefly, 5000-15000 post transfection cells were plated into collagen treated 96-well plates (Nunc) and incubated overnight. […] The assay media was aspirated, and 50 μL of lysis buffer (250 mM Tris-HCl pH=8.0 and 0.1% Triton X-100) was added. The plates were stored at −80° C. overnight. The plates containing the cell lysates were thawed the following day. Aliquots of 10 μL were taken from each well and transferred to another 96-well plate for relative protein determination. To the cell lysate plates, 40 μL of phosphate-buffered saline with 0.5% BSA was added to each well. Subsequently, 150 μL of substrate buffer (60 mM sodium phosphate, 1 mM MgCl2, 10 mM KCl, 5 mM β-mercaptoethanol, 2 mg/mL ONPG) was added to each well and the plates were incubated at 37° C. The sample absorbance, OD405, was measured using a 96-well plate reader (Molecular Devices). The relative protein was determined by adding 200 μL of 1:5 dilution BioRad G250 protein dye:water to the 10 μL of cell lysate sample taken previously, and the OD595 was measured on a 96-well plate reader (Molecular Devices). Data points were normalized to forskolin and the relative protein content were used as positive controls. The EC50 values represent the mean of three or more independent experiments. The EC50 estimates, and their associated standard errors of the mean, were determined by fitting the data to a nonlinear least-squares analysis using the PRISM program (v4.0, GraphPad Inc.).
(§3) The results are tabulated in the form of EC50 values. In the case where the particular receptor was not activated to full activity at 100,000 nM, then the relative activity was reported.

Setting [3] is: reported where receptor not activated to full activity.

T1 sequence (P56450 whole entry): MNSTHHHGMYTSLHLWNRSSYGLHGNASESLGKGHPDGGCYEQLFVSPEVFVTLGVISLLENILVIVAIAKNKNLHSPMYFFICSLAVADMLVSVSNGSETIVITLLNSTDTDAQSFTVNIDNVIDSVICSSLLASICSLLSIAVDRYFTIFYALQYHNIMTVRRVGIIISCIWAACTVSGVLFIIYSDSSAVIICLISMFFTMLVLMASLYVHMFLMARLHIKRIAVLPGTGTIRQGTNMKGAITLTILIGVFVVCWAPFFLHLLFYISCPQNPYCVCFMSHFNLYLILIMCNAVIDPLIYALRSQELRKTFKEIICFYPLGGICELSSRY
Chain of mMC1R (Q01727 whole entry): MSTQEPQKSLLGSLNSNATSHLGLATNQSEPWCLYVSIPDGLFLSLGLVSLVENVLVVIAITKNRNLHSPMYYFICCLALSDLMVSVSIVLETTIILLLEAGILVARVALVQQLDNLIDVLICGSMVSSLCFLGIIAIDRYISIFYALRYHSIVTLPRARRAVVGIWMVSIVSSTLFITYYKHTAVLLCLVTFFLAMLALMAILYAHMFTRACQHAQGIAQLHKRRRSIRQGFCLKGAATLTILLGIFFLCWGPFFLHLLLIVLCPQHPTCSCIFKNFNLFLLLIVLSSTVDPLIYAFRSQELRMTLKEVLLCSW
Experimental for mMC3R: as §1, §2, §3

In the case of `CC(C)C[C@@H]1CNC(=N)N1C[C@@H]1CCCN1C[C@@H](Cc1ccccc1)N1C[C@@H]([C@@H](C)O)N(CC2CCC(C(C)(C)C)CC2)C1=N` (stereo partly drawn) [TPI 2509-14, (R)-1-((S)-3-((4-(tert-butyl)cyclohexyl)methyl)-2-imino-1-((R)-1-((S)-2-(((R)-2-imino-5-isobutylimidazolidin-1-yl)methyl)pyrrolidin-1-yl)-3-phenylpropan-2-yl)imidazolidin-4-yl)ethanol], at mMC4R [1], the Kb amounted to 0.1 µM, the Ki worked out at 0.1 µM and the “mMC4R Antagonist pA2” value was 7.0±0.7. Moreover, at mMC1R (setting [3]), the “mMC1R Activity @ 10 μM (class)” value is reported as “B (B: >51%)” and the “mMC1R Activity @ 10 μM (relative activity, percent)” value is on record as 58%. On mMC5R, the EC50 was found to be 0.53 ± 0.05 µM. For the same compound, at mMC3R, a half-maximal response (EC50) required 0.31 ± 0.06 µM and the “EC50 values at the melanocortin-3 receptor (in words)” value was “nanomolar”. In addition, at mMC4R [2], the Emax is over 20% and the “mMC4R Activity @ 10 μM (class)” value is on record as “A (A: <50%)”.

In the case of `CC(C)[C@@H]1CNC(=N)N1C[C@@H]1CCCN1C[C@@H](Cc1ccccc1)N1C[C@@H]([C@@H](C)O)N(CC2CCC(C(C)(C)C)CC2)C1=N` (stereo partly drawn) [TPI 2509-32, (R)-1-((S)-3-((4-(tert-butyl)cyclohexyl)methyl)-2-imino-1-((R)-1-((S)-2-(((R)-2-imino-5-isopropylimidazolidin-1-yl)methyl)pyrrolidin-1-yl)-3-phenylpropan-2-yl)imidazolidin-4-yl)ethanol], on mMC4R [1], the Kb came to 0.316 µM, the Ki stood at 0.32 µM and the “mMC4R Antagonist pA2” value turned out to be 6.5±0.5. At mMC1R, this compound gave an EC50 of 0.6 ± 0.34 µM. The EC50 at mMC5R came out at 0.49 ± 0.155 µM. Moreover, at mMC3R, the EC50 is 0.42 ± 0.12 µM and the “EC50 values at the melanocortin-3 receptor (in words)” value is “nanomolar”. Further, at mMC4R [2], the Emax was over 20% and the “mMC4R Activity @ 10 μM (class)” value is “A (A: <50%)”.

As to `CC(C)[C@@H]1CNC(=N)N1C[C@@H]1CCCN1C[C@@H](Cc1ccccc1)N1C[C@@H]([C@@H](C)O)N(CC23CC4CC(CC(C4)C2)C3)C1=N` [TPI 2509-31, (R)-1-((S)-3-(adamantan-1-ylmethyl)-2-imino-1-((R)-1-((S)-2-(((R)-2-imino-5-isopropylimidazolidin-1-yl)methyl)pyrrolidin-1-yl)-3-phenylpropan-2-yl)imidazolidin-4-yl)ethanol], the Kb on mMC4R [1] amounted to 1.58 µM. Moreover, the EC50 on mMC1R amounted to 0.44 ± 0.14 µM; on mMC5R it was 0.18 ± 0.09 µM; at mMC3R, 0.36 ± 0.01 µM. In addition, the “mMC4R Activity @ 10 μM (relative activity, percent)” value at mMC4R [2] turned out to be 50%.

Compound `CCC[C@@H]1CN([C@H](CC2CCCCC2)CN2CCC[C@H]2CN2C(=N)NC[C@H]2C(C)C)C(=N)N1CC1CCC(C(C)(C)C)CC1` (stereo partly drawn) [TPI 2509-26, (R)-3-((4-(tert-butyl)cyclohexyl)methyl)-1-((R)-1-cyclohexyl-3-((S)-2-(((R)-2-imino-5-isopropylimidazolidin-1-yl)methyl)pyrrolidin-1-yl)propan-2-yl)-4-propylimidazolidin-2-imine] showed a Kb at mMC4R [1] of 1.58 µM. Besides, the “mMC1R Activity @ 10 μM (class)” value on mMC1R (setting [3]) was “B (B: >51%)”. Further, the response on mMC5R was half-maximal at 0.54 ± 0.05 µM (EC50). The same compound yielded an EC50 at mMC3R of 0.35 ± 0.02 µM. Moreover, on mMC4R [2], the “mMC4R Activity @ 10 μM (class)” value was “A (A: <50%)” and the “mMC4R Activity @ 10 μM (relative activity, percent)” value worked out at 50%.

For orientation: Kb means the equilibrium dissociation constant of an antagonist, usually derived from a functional assay. A word on the Ki: it is the dissociation constant of the complex between target and ligand, obtained from inhibition or displacement. The term EC50 denotes the concentration needed to bring the measured effect to its halfway point.

These data come from patent US11932628B2, “Selective small molecule peptidomimetic melanocortin ligands” (REGENTS OF THE UNIVERSITY OF MINNESOTA, priority 2021, dated 2024).
